The data set is described as follows: Lactam solubility in water or water + ethyl lactate (48 hours agitation, filtration, HPLC quantification). The settings on record: for Mean Lactam Level in Solution: 48 hours agitation. The format is physicochemical. As for the experimental part:
The following example uses, without limitation, 4-(4-chlorophenyl)-5-methylene-pyrrol-2-one and ethyl lactate.
Excess solid lactam (˜3 mg) was placed in a Whatman® Mini Uniprep sample vial, fitted with a 0.45 μm nylon filter. Water or water+ethyl lactate (500 μL) was added the mixture shaken and tapped briefly to initially disperse the solid and the mixture then agitated for 48 hours using a plate shaker fitted with a vial holder (see image below). After 48 hours, the solid was removed from the system by pressing down the plunger with integral filter on the vial (see image below). This removes the solid and provides filtered solution within the inner chamber which is then ready for analysis.
The level of lactam dissolved in solution was quantified using HPLC analysis. Samples were analysed on an Agilent 1200® series HPLC fitted with a Thermo Hypersil® Gold C18 column (15×2.1×3 μm), isocratic elution with 60/40 methanol/water (+0.1% Formic Acid), 0.4 mL/min flow rate, using a DAD detector at 285 nm. 4-(4-chlorophenyl)-5-methylene-pyrrol-2-one has a retention time of ˜2.8 minutes.
The absolute level of lactam in solution is measured and reported as an increase in solubility of lactam relative to water alone.

[1] abbreviates: 0 % ethyl lactate in water (water alone).

For the compound `C=C1NC(=O)C=C1c1ccc(Cl)cc1` [4-(4-chlorophenyl)-5-methylene-pyrrol-2-one], the “Solubility Increase vs water alone” value is 1.00 under setting [1]; 1.21 (0.5 % ethyl lactate in water); 1.21 (1 % ethyl lactate in water); 1.99 (2 % ethyl lactate in water); 4.63 (5 % ethyl lactate in water); 10.57 (10 % ethyl lactate in water). Besides, the “Mean Lactam Level in Solution” value by setting is: under setting [1], 5.7 ppm; (0.5 % ethyl lactate in water) 6.9 ppm; (1 % ethyl lactate in water) 6.9 ppm; (2 % ethyl lactate in water) 11.3 ppm; (5 % ethyl lactate in water) 26.4 ppm; (10 % ethyl lactate in water) 60.2 ppm.

The values are drawn from patent US11077036B2, “Lactam solubility” (Conopco, Inc., priority 2015, dated 2021).
